{
  "source": "patent US8481762B2",
  "about": "“Administration of compounds that increase glutathione levels in the melanocytes for the treatment of canities” (L'Oreal, priority 2004, dated 2013)",
  "test_system": "human melanocyte line WM35",
  "settings": "wild-type WM35 treated 24 h before H2O2 stress; compared with clone-2 line",
  "method": "To carry out the test, the cells are inoculated at the density of 2.5×10^4 cells/well and then treated with the compounds to be evaluated:\na—1:1 mixture containing 4 μg/ml of cafestol and kahweol;\nAfter 24 h, the cells are exposed to a stress induced by H2O2.\nThe cell viability is measured 24 h after the stress with the aid of 2′,7′-dichlorodihydrofluoresceine diacetate (H2DCFDA; D399, Molecular Probes).",
  "data": [
    {"smiles": "Cc1c(-c2cnccn2)ssc1=S", "note": "[oltipraz]", "values": [
      {"measurement": "effect on sensitivity of the wild-type line to H2O2 induced stress", "result": "limits the sensitivity of the cells to H2O2 induced stress"}
    ]}
  ]
}
